Results from patent publication US9243024B2, “Aptamer-mediated drug release” (priority 2009, dated 2016).
Each block holds one compound with its values, some of them ahead of it.

Legend:
[1] = test system: aptamer (SEQ ID NO:7) functionalized microspheres loaded with conjugate (5); test: Triggered release of insulin conjugate (5) from aptamer coated microspheres, fluorescence monitoring
Experimental: (for a biotin binding site:aptamer ratio of 5:1) Streptavidin functionalized magnetic microspheres (Bangs Laboratories), 2 mL, were washed with HEPES 10 mM/NaCl 150 mM/pH 7.4 buffer 3×2 mL, using a magnet to separate out the microspheres from the washings. The microspheres were suspended in 1 mL of the same buffer. The aptamer 5′-/5BioTEG//iSp18//iSp18/ATCTCGGTCTCGGGACGACAGGATTTTCCTCAATGAAGTGGGTCGTCCCGAGACC-3′ (SEQ ID NO:7) (IDT, Coralville, Iowa, USA), 2 nmoles, was dissolved in 10 mL of the buffer and added slowly drop-wise to the microsphere suspension under continuous shaking. The mixture was incubated for one hour and then washed 3×, once with a 1 mL volume then twice with 200 μL volumes after transfer to a 1.5 mL microcentrifuge tube. The washed microspheres were resuspended in 1 mL of buffer and stored at 4° C. until use. For a biotin binding site:aptamer ratio of 1:1, i.e. saturated, 800 μL of microspheres were prepared as above, with the exception that they were resuspended in 400 uL of buffer with 8 nmoles of aptamer then added.
Aptamer functionalized microspheres (200 uL containing 0.4 nmoles of aptamer were washed 1×200 μL of binding buffer and then resuspended in 100 μl of the same buffer. The insulin-PEO12-oligonucleotide conjugate in 0.5 nmoles, in 37 μL of water, was added to the suspension and incubated, with constant mixing by inversion, overnight at room temperature, protected from light.
All release experiments were carried out in water containing NaCl (140 mM), KCl (5 mM), and MgCl2 (1.2 mM), buffered to pH 7.4 with Tris (20 mM). Streptavidin coated microspheres were mixed with biotinylated aptamer to obtain aptamer coated microspheres, see above for detailed preparation. […] On addition of six micromolar quinine at three and one half hours an additional pulse with analogous characteristics of the first pulse was observed. A third analogous pulse can be triggered using eighteen micromolar quinine. […]

[2] = test system: matrix-displayed aptamer (SEQ ID NO:11) on Biacore SA chip; test: Biacore SPR: loading and release from aptamer-coated SA chip; type: binding
Experimental: For SPR experiments, Biacore X system and commercially available Biacore SA sensor chips from Biacore AB (Uppsala, Sweden) were used.
A 1 μM solution of aptamer aptamer 5′-/5BioTEG//iSp18//iSp18/ATCTCGGTCTCGGGACGACAGGATTTTCCTCAATGAAGTGGGTCGTCCCGAGA (SEQ ID NO:11) in 10 mM HEPES at pH 7.4, 150 mM NaCl, and 3 mM EDTA (in HBS-EP) was applied to one of the SA sensor chip's two channels for 20 min at 4 μL min^−1, followed by a 120 sec wash with 4 M urea/15 mM EDTA to remove any nonspecifically adsorbed material. The aptamer used for these SPR experiments was shorter by two bases relative to the aptamer used in the microsphere experiments (see SEQ ID NO:7). According to the Biacore SA chip literature, the matrix was a highly irregular 3D dextran hydrogel recognition matrix with a height of approximately 100-200 nm and an uneven distribution of streptavidin. The matrix was coated with biotinylated aptamer containing two 18-atom hexaethylene glycol spacers between the biotin and the oligonucleotide. On the basis of changes in SPR response, the aptamer was coated at saturation densities of 0.12-to-0.15 pmol mm^−2, an estimated average inter-aptamer distance of 10-to-11 nm (based on a 100 nm height for the dextran layer. 1.2-to-1.6 molecules of insulin-conjugate bound per aptamer on initial loading, with oligonucleotide binding (i.e. no insulin attached) at 1.2 per aptamer. Where possible, the channel with no aptamer or insulin-conjugate/oligonucleotide deposited acted as a blank for correction of system influence. When the additional channel was not able to be used as a blank, data for the first 10 minutes of any buffer change was omitted due to artifacts occurring in this time period caused by washes with the new buffer.
Matrix-Aptamer Hybridization with (5). (5) 1 μM in NaCl (140 mM), KCl (5 mM), and MgCl2 (1.2 mM), buffered to pH 7.4 with Tris (20 mM), was dispensed on the aptamer displaying channel at 1 μL min^−1 until saturation (80 min), with the other channel used as a system influence control when possible. Monitoring of conjugate (5) release was taken 15 minutes after the end of the conjugate (5) application time to allow for weak non-specifically bound conjugate to be washed from the surface. Conjugate dissociation in real time was measured through the decrease in mass, again using the formula 1000 R.U.=[…]. In some experiments, instrumental instabilities were observed as occasional spikes in sensorgrams during long-time monitoring.
Release of the insulin-conjugate (i→ii in FIG. 1A) was studied in two different systems: 1) release from a dextran matrix (SA-Chip, Biacore), under continuous flow, with surface plasmon resonance (SPR) monitoring, and 2) release from the surface of non-porous beads followed by fluorescence monitoring. […]

[3] = test system: rat hepatoma cell insulin signaling pathways (McA-RH7777); test: Tissue culture and insulin signaling assay; type: cell-based; conditions: 100 nM for 10 min, McA-RH7777 cells, in triplicate
Experimental: McA-RH7777, rat hepatoma cells were grown in DMEM media with 20% fetal bovine serum. Cells were incubated in serum-free medium for 5 hours and treated with insulin and insulin-oligonucleotide conjugate at the concentration of 100 nM for 10 min. Cell lysates were prepared in SDS lysis buffer (2% SDS, 62.5 mM Tris HCL (pH 6.8), 10% glycerol, 50 mM DTT, 0.01% Bromophenol Blue). All antibodies were purchased from Cell Signaling Technology (Danvers, Mass.).

Spiegelmer (L-MNS) = Spiegelmer (L-MNS) binding of quinine; conditions: same conditions as MNS-1/1-Q
From the text: ) binding of quinine. […] from ChemGenes (Wilmington, Mass.). Note that the sequence and label are same as mns-1, 1-Q, measurement conditions and concentrations were also the same (see FIG. 4, and Materials and Methods section in Example section 6). […] Oligonucleotides MNS-1 and 1-Q were custom-made and HPLC purified by Integrated DNA Technologies, Inc (Coralville, Iowa, USA) and were used as received. The base sequence for MNS-1 is: 5'-fluorescein-[NT] ID NO:4), and 1-Q is: 5'-[NT]-dabcyl (SEQ ID NO:5). […] (St. Louis, Mo., USA). All measurements were performed in 20 mM Tris-HCl pH 7.4, 140 mM NaCl, 5 mM KCl, 2 mM MgCl2. […] Measurements were performed after an incubation time of 30 min. The measurements were performed on a Perkin-Elmer Victor II microplate reader (Wallac, Finland) with a 485-nm excitation filter and a 535-nm emission filter.

cocaine aptamer MNS-1 = test: Fluorescence screening of FDA approved drugs against fluorescein-labeled aptamer MNS-1 with DABCYL quencher oligonucleotide 1-Q; type: binding; conditions: 20 mM Tris-HCl pH 7.4, 50 nM MNS-1, 150 nM 1-Q, 30 min incubation
Experimental: Oligonucleotides MNS-1 and 1-Q were custom-made and HPLC purified by Integrated DNA Technologies, Inc (Coralville, Iowa, USA) and were used as received. The base sequence for MNS-1 is: 5′-fluorescein-ATCTCGGGACGACAGGATTTTCCTCAATGAAGTGGGTCGTCCC (SEQ ID NO:4), and 1-Q is: 5′-GTC GTC CCG AGA T-dabcyl (SEQ ID NO:5). All compounds (except cocaine) were purchased from Sigma-Aldrich Co. (St. Louis, Mo., USA). All measurements were performed in 20 mM Tris-HCl pH 7.4, 140 mM NaCl, 5 mM KCl, 2 mM MgCl2. Mixture of MNS-1 and 1-Q was incubated for 5 min at room temperature, then a series of standard dilutions of all compounds were added to the mixture solutions of MNS-1 and 1-Q to final concentrations of 50 nM and 150 nM respectively. Measurements were performed after an incubation time of 30 min. The measurements were performed on a Perkin-Elmer Victor II microplate reader (Wallac, Finland) with a 485-nm excitation filter and a 535-nm emission filter. […]

Compound: C[C@]12CCC(=O)C=C1CC[C@@H]1[C@@H]2[C@@H](O)C[C@@]2(C)[C@H]1CC[C@]2(O)C(=O)COC(=O)CCC(=O)O [hydrocortisone-21-hemisuccinate (HHS), hydrocortisone-21-hemisuccinate]
triggering of insulin conjugate release from microspheres ([1]; 250 μM, soaking for a total of 60 minutes): sluggishly
triggering of insulin conjugate release from microspheres ([1]; higher concentrations than 250 μM): significant release of the conjugate

Compound: 5′-TCTCGGGACGACCCACTTCATTG-3′ (TCTCGGGACGACCCACTTCATTG; listed as DNA, chemistry not given here) [oligonucleotide inhibitor]
blocking of insulin-conjugate release in the presence of quinine ([2]; 1 μM inhibitor, SPR): block the release of the insulin-conjugate

Compound: Fluorescein-5′-GTC GTC CCG AGA CCG AGA T-3′-L1-Insulin [insulin conjugate]
line of best fit slope of initial rate data for dissociation ([2]; SA chip (Biacore), fitted from 15 to 25 minutes): −0.1399 fmol mm^−2 min^−1
observed initial dissociation rate ([2]; SA chip (Biacore), no quinine): 0.14 fmol mm^−2 min^−1
activity of insulin conjugate on insulin signaling [3]: full activity

binding to the spiegelmer of the aptamer (Spiegelmer (L-MNS)): bound to the spiegelmer of the aptamer
Kd (cocaine aptamer MNS-1): ~600 nM
Compound: C=C[C@H]1C[N@@]2CC[C@H]1C[C@H]2[C@H](O)c1ccnc2ccc(OC)cc12 [quinine]
insulin-conjugate boluses by escalating quinine concentrations ([2]; 0, 2 and 8 μM quinine, or 1.5, 6 and 18 μM after pre-washing the chip, SPR): desired profile with three postprandial boluses
triggered release of (5) from microspheres ([1]; two micromolar quinine, pH 7.4): a pulse of (5) was released
